Assay results taken from PubChem BioAssay (NCI).
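These data come from cells grown in 96-well plates and exposed to compound for 48 hours at five concentrations. GI50 is the concentration that inhibits growth by half. TGI is the concentration that stops growth completely.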

Key:
Experiment in all cases: DTP human tumour cell line panel, 48 h
MOLT-4 leukemia = test system: MOLT-4 leukemia
EKVX NSCLC = test system: EKVX NSCLC
SW-620 colon = test system: SW-620 colon
RXF 393 renal = test system: RXF 393 renal
SK-OV-3 ovarian = test system: SK-OV-3 ovarian
HCT-116 colon = test system: HCT-116 colon
NCI-H226 lung = test system: NCI-H226 lung
SNB-19 CNS = test system: SNB-19 CNS
K-562 leukemia = test system: K-562 leukemia
HCC-2998 colon = test system: HCC-2998 colon

For `COc1ccc(/C(C#N)=C/c2ccccc2OC)cc1`, the GI50 (MOLT-4 leukemia) was 5.49 µM, the TGI (MOLT-4 leukemia) was over 100 µM and the GI50 (EKVX NSCLC) was 41.1 µM. It also gave a TGI (EKVX NSCLC) of over 100 µM, a GI50 (SW-620 colon) of 3.78 µM and a TGI (SW-620 colon) of over 100 µM. The GI50 (RXF 393 renal) was 5.4 µM, the TGI (RXF 393 renal) was 27.4 µM and the GI50 (SK-OV-3 ovarian) was 19.4 µM. For the same molecule, the TGI (SK-OV-3 ovarian) was over 100 µM, the GI50 (HCT-116 colon) was 4.46 µM and the TGI (HCT-116 colon) was over 100 µM. The GI50 (NCI-H226 lung) was 17.7 µM, the TGI (NCI-H226 lung) was over 100 µM and the GI50 (SNB-19 CNS) was 30.3 µM. For the same molecule, the TGI (SNB-19 CNS) was over 100 µM, the GI50 (K-562 leukemia) was 4.11 µM and the TGI (K-562 leukemia) was over 100 µM. The GI50 (HCC-2998 colon) was 14.5 µM and the TGI (HCC-2998 colon) was over 100 µM.

In the case of `CC1OC(O[C@@H]2OC=C(C=O)[C@@]3(O)CC[C@H](C)[C@@H]23)C(O)C(O)C1O` (stereo not given in full), the TGI (MOLT-4 leukemia) is reported as over 100 µM, the TGI (EKVX NSCLC) is reported as over 100 µM and the TGI (SW-620 colon) is reported as over 100 µM. For the same molecule, the TGI (RXF 393 renal) was over 100 µM, the TGI (SK-OV-3 ovarian) was over 100 µM and the TGI (HCT-116 colon) was over 100 µM. The TGI (NCI-H226 lung) was over 100 µM, the TGI (SNB-19 CNS) was over 100 µM and the TGI (K-562 leukemia) was over 100 µM. It also gave a TGI (HCC-2998 colon) of over 100 µM.

`CCCCCCCCCCCC(=O)OCC1OC(n2cc(F)c(=O)[nH]c2=O)C(NC(=O)OCc2ccccc2)C(OC(=O)CCCCCCCCCCC)C1O` (stereo not given) showed a TGI (MOLT-4 leukemia) of over 100 µM, a TGI (EKVX NSCLC) of over 100 µM and a TGI (SW-620 colon) of over 100 µM. For the same molecule, the TGI (RXF 393 renal) was over 100 µM, the TGI (SK-OV-3 ovarian) was over 100 µM and the TGI (HCT-116 colon) was over 100 µM. For the same molecule, the TGI (NCI-H226 lung) was over 100 µM, the TGI (SNB-19 CNS) was over 100 µM and the TGI (K-562 leukemia) was over 100 µM. For the same molecule, the TGI (HCC-2998 colon) was over 100 µM.

For `CCc1ccccc1NC(=O)C(=O)CC(=O)c1sc(Nc2ccccc2)nc1C`, the TGI (MOLT-4 leukemia) was over 100 µM, the TGI (EKVX NSCLC) was over 100 µM and the TGI (SW-620 colon) was over 100 µM. It also gave a TGI (RXF 393 renal) of over 100 µM, a TGI (SK-OV-3 ovarian) of over 100 µM and a TGI (HCT-116 colon) of over 100 µM. For the same molecule, the TGI (NCI-H226 lung) was over 100 µM, the TGI (SNB-19 CNS) was over 100 µM and the TGI (K-562 leukemia) was over 100 µM. For the same molecule, the TGI (HCC-2998 colon) was over 100 µM.

`Cc1[nH]ccc2c1[nH]c1cc(=O)ccc12` gave a TGI (MOLT-4 leukemia) of 85.9 µM, a TGI (EKVX NSCLC) of over 100 µM and a TGI (SW-620 colon) of over 100 µM. The TGI (RXF 393 renal) was over 100 µM, the TGI (SK-OV-3 ovarian) was over 100 µM and the TGI (HCT-116 colon) was over 100 µM. For the same molecule, the TGI (NCI-H226 lung) was over 100 µM, the TGI (SNB-19 CNS) was over 100 µM and the TGI (K-562 leukemia) was over 100 µM. It also gave a TGI (HCC-2998 colon) of over 100 µM.

Molecule `Cc1ccc(N=Nc2c(O)c(C(=O)O)cc3ccccc23)cc1C` has a TGI (MOLT-4 leukemia) of over 100 µM, a TGI (EKVX NSCLC) of over 100 µM and a TGI (SW-620 colon) of over 100 µM. It also gave a TGI (RXF 393 renal) of over 100 µM, a TGI (SK-OV-3 ovarian) of over 100 µM and a TGI (HCT-116 colon) of over 100 µM. The TGI (NCI-H226 lung) was over 100 µM, the TGI (SNB-19 CNS) was over 100 µM and the TGI (K-562 leukemia) was over 100 µM. It also gave a TGI (HCC-2998 colon) of over 100 µM.

Molecule `CN(C)C(=O)OC(Cn1cncn1)c1ccc(Cl)cc1Cl` (stereo not given) has a TGI (MOLT-4 leukemia) of over 100 µM, a TGI (EKVX NSCLC) of over 100 µM and a TGI (SW-620 colon) of over 100 µM. It also gave a TGI (RXF 393 renal) of over 100 µM, a TGI (SK-OV-3 ovarian) of over 100 µM and a TGI (HCT-116 colon) of over 100 µM. For the same molecule, the TGI (NCI-H226 lung) was over 100 µM, the TGI (SNB-19 CNS) was over 100 µM and the TGI (K-562 leukemia) was over 100 µM. For the same molecule, the TGI (HCC-2998 colon) was over 100 µM.

`Cn1cc(-c2ccc3occ(-c4cccc(-c5ccncc5)c4)c3n2)cn1` showed a GI50 (MOLT-4 leukemia) of 0.582 µM, a TGI (MOLT-4 leukemia) of over 100 µM and a GI50 (EKVX NSCLC) of 1.25 µM. For the same molecule, the TGI (EKVX NSCLC) was over 100 µM, the GI50 (SW-620 colon) was 0.435 µM and the TGI (SW-620 colon) was over 100 µM. The GI50 (RXF 393 renal) was 0.661 µM, the TGI (RXF 393 renal) was 4.44 µM and the GI50 (SK-OV-3 ovarian) was 1.82 µM. For the same molecule, the TGI (SK-OV-3 ovarian) was over 100 µM, the GI50 (HCT-116 colon) was 0.382 µM and the TGI (HCT-116 colon) was over 100 µM. The GI50 (NCI-H226 lung) was 1.5 µM, the TGI (NCI-H226 lung) was over 100 µM and the GI50 (SNB-19 CNS) was 1.21 µM. It also gave a TGI (SNB-19 CNS) of over 100 µM, a GI50 (K-562 leukemia) of 0.284 µM and a TGI (K-562 leukemia) of over 100 µM. It also gave a GI50 (HCC-2998 colon) of 1.74 µM and a TGI (HCC-2998 colon) of over 100 µM.

Work on `CCOc1ccc(NC(=O)C(=O)CC(=O)C2=C(C)Nc3ccccc3S2)cc1` yielded a TGI (MOLT-4 leukemia) of over 50 µM, a TGI (EKVX NSCLC) of over 50 µM and a TGI (SW-620 colon) of over 50 µM. It also gave a TGI (RXF 393 renal) of over 50 µM, a TGI (SK-OV-3 ovarian) of over 50 µM and a TGI (HCT-116 colon) of over 50 µM. It also gave a TGI (NCI-H226 lung) of over 50 µM, a TGI (SNB-19 CNS) of over 50 µM and a TGI (K-562 leukemia) of over 50 µM. For the same molecule, the TGI (HCC-2998 colon) was over 50 µM.

In the case of `O=C(/C=C/c1ccccc1)c1cc(Br)ccc1O`, the TGI (MOLT-4 leukemia) is reported as 36.3 µM, the TGI (EKVX NSCLC) is reported as 27.6 µM and the TGI (SW-620 colon) is reported as 46.8 µM. It also gave a TGI (RXF 393 renal) of 37.4 µM, a TGI (SK-OV-3 ovarian) of 38.1 µM and a TGI (HCT-116 colon) of 32.3 µM. The TGI (NCI-H226 lung) was 31.7 µM, the TGI (SNB-19 CNS) was 35.8 µM and the TGI (K-562 leukemia) was 43.1 µM. For the same molecule, the TGI (HCC-2998 colon) was 32.2 µM.

For `Cc1ccc(-c2cn3ccnc3c(-c3ccc(Cl)cc3)n2)cc1`, the GI50 (MOLT-4 leukemia) was 0.0815 µM, the TGI (MOLT-4 leukemia) was over 100 µM and the GI50 (EKVX NSCLC) was 0.543 µM. The TGI (EKVX NSCLC) was over 100 µM, the GI50 (SW-620 colon) was under 0.0217 µM and the TGI (SW-620 colon) was over 61.2 µM. For the same molecule, the GI50 (RXF 393 renal) was 2.16 µM, the TGI (RXF 393 renal) was over 100 µM and the GI50 (SK-OV-3 ovarian) was 0.714 µM. It also gave a TGI (SK-OV-3 ovarian) of over 94 µM, a GI50 (HCT-116 colon) of 0.292 µM and a TGI (HCT-116 colon) of over 33.8 µM. It also gave a GI50 (NCI-H226 lung) of 10.3 µM, a TGI (NCI-H226 lung) of over 100 µM and a GI50 (SNB-19 CNS) of 1.39 µM. For the same molecule, the TGI (SNB-19 CNS) was over 65.4 µM, the GI50 (K-562 leukemia) was 0.0352 µM and the TGI (K-562 leukemia) was over 100 µM. It also gave a GI50 (HCC-2998 colon) of 2.13 µM and a TGI (HCC-2998 colon) of 11.4 µM.

`CCCCCCCCCCC(C(=O)O)C1(C(=O)O)CCC(=O)O1` (stereo not given) showed a TGI (MOLT-4 leukemia) of over 100 µM, a TGI (EKVX NSCLC) of over 100 µM and a TGI (SW-620 colon) of over 100 µM. The TGI (RXF 393 renal) was over 100 µM, the TGI (SK-OV-3 ovarian) was over 100 µM and the TGI (HCT-116 colon) was over 100 µM. It also gave a TGI (NCI-H226 lung) of over 100 µM, a TGI (SNB-19 CNS) of over 100 µM and a TGI (K-562 leukemia) of over 100 µM. The TGI (HCC-2998 colon) was over 100 µM.

`CCOC(=O)COc1ccccc1/C=C1\CCC(CN(C)C)C1=O` (stereo not given) showed a TGI (MOLT-4 leukemia) of 4.61 µM, a TGI (EKVX NSCLC) of 34.7 µM and a TGI (SW-620 colon) of 6.64 µM. It also gave a TGI (RXF 393 renal) of 7.94 µM, a TGI (SK-OV-3 ovarian) of 31.4 µM and a TGI (HCT-116 colon) of 9.36 µM. It also gave a TGI (NCI-H226 lung) of 32.8 µM, a TGI (SNB-19 CNS) of 20.6 µM and a TGI (K-562 leukemia) of 6.51 µM. It also gave a TGI (HCC-2998 colon) of 7.98 µM.

`C=CCC[CH2][Sn]([c]1ccccc1)([c]1ccccc1)[c]1ccccc1` was tested, and the GI50 (MOLT-4 leukemia) was 1.26 µM, the TGI (MOLT-4 leukemia) was 5.27 µM and the GI50 (EKVX NSCLC) was 1.89 µM. It also gave a TGI (EKVX NSCLC) of 3.97 µM, a GI50 (SW-620 colon) of 0.856 µM and a TGI (SW-620 colon) of 2.12 µM. The GI50 (RXF 393 renal) was 1.34 µM, the TGI (RXF 393 renal) was 2.66 µM and the GI50 (SK-OV-3 ovarian) was 1.89 µM. For the same molecule, the TGI (SK-OV-3 ovarian) was 3.57 µM, the GI50 (HCT-116 colon) was 0.977 µM and the TGI (HCT-116 colon) was 2.15 µM. For the same molecule, the GI50 (NCI-H226 lung) was 1.74 µM, the TGI (NCI-H226 lung) was 3.33 µM and the GI50 (SNB-19 CNS) was 1.73 µM. The TGI (SNB-19 CNS) was 3.31 µM, the GI50 (K-562 leukemia) was 2.15 µM and the TGI (K-562 leukemia) was 16.5 µM. The GI50 (HCC-2998 colon) was 1.69 µM and the TGI (HCC-2998 colon) was 3.11 µM.
